In the NIST ThermoML archive (doi:10.1021/je049562e):

Settings: Liquid, Twin ebulliometer

CCCCCCC [heptane]
Settings | vapor or sublimation pressure [kPa]
372.08 K | 102.9
374.5 K | 110.39
377.68 K | 120.89
384.39 K | 145.56
389.41 K | 166.41
393.58 K | 185.5
396.7 K | 200.79
401.26 K | 224.89
405.44 K | 248.92
409.66 K | 275.09
413.8 K | 302.76
419.17 K | 341.76
423.85 K | 378.8
428.69 K | 420.15
433.81 K | 467.65
438.86 K | 518.27
443.5 K | 568.27
447.95 K | 619.76
451.8 K | 666.97
456.35 K | 726.16
459.78 K | 773.29
465.07 K | 850.62
469.84 K | 925.23
473.39 K | 983.9
476.11 K | 1030.6
479.57 K | 1092.4
483.67 K | 1169.4
487.36 K | 1242.3
490.81 K | 1313.4
494.11 K | 1384.2
496.77 K | 1443.4
500.01 K | 1518.2
503.59 K | 1604.1
507.39 K | 1699.5
510.95 K | 1793
515.27 K | 1911.6
518.99 K | 2019.1
522.22 K | 2116.1
525.53 K | 2219.7
528.3 K | 2309.8
531.47 K | 2416.5
534.57 K | 2525.7
537.2 K | 2621.8
